Laboratory results published in article PMC5786788, “Antimicrobial Octapeptin C4 Analogues Active against Cryptococcus Species” (Antimicrobial Agents and Chemotherapy, 2018).

How the values were obtained:
[1] = system: C. neoformans var. neoformans; experiment: microbe, parasite or virus in culture; conditions: Cryptococcus neoformans, no visible growth
Procedure: The MICs of the yeast strains for PMB, PME, and octapeptin C4 and its derivatives were determined in accordance with CLSI M27-A2 guidelines using YNB (Becton Dickinson, USA) medium supplemented with 10 mM ammonium sulfate and 2% glucose, a final inoculum concentration of 1.5 × 10^3 to 2.0 × 10^3 cells/ml, and incubation at 35°C for 72 h ([39]). […] The MICs for PMB, PME, and octapeptin C4 for A. fumigatus were determined in accordance with the CLSI M38-A2 guidelines ([40]) using synthetic RPMI 1640 medium (with glutamine, without bicarbonate and with phenol red; Life Technologies, USA). The final inoculum concentration was 0.4 × 10^4 to 5 × 10^4 cells/ml, with incubation at 35°C for 48 h. […] All assays were completed in triplicate. Fluconazole was used as a positive control where the MIC was determined at both 50% growth (in accordance with CLSI M27-A2 guidelines) and when there was a “no visible growth” reading.

[2] = system: C. neoformans var. grubii; experiment: microbe, parasite or virus in culture
Procedure: The MICs of the yeast strains for PMB, PME, and octapeptin C4 and its derivatives were determined in accordance with CLSI M27-A2 guidelines using YNB (Becton Dickinson, USA) medium supplemented with 10 mM ammonium sulfate and 2% glucose, a final inoculum concentration of 1.5 × 10^3 to 2.0 × 10^3 cells/ml, and incubation at 35°C for 72 h ([39]). […] The MICs for PMB, PME, and octapeptin C4 for A. fumigatus were determined in accordance with the CLSI M38-A2 guidelines ([40]) using synthetic RPMI 1640 medium (with glutamine, without bicarbonate and with phenol red; Life Technologies, USA). The final inoculum concentration was 0.4 × 10^4 to 5 × 10^4 cells/ml, with incubation at 35°C for 48 h. […] All assays were completed in triplicate. Fluconazole was used as a positive control where the MIC was determined at both 50% growth (in accordance with CLSI M27-A2 guidelines) and when there was a “no visible growth” reading. […]

Measured: MIC

OC(Cn1cncn1)(Cn1cncn1)c1ccc(F)cc1F [Fluconazole, fluconazole]
6.25 mg/L: [1]; strain WM 05.515 (Peru) | [1]; strain WM 09.109 (Italy, environmental) | [1]; strain WM 10.119 (Australia) | [1]; strain WM 629 (Australia) | [1]; strain WM 1740 (Chile) | [1]; strain WM 2530 (USA) | [2]; Cryptococcus neoformans, read-out: MIC-2, strain 490 (USA), 50% fungal growth | [2]; Cryptococcus neoformans, read-out: MIC-2, strain 496 (USA), 50% fungal growth | [2]; Cryptococcus neoformans, read-out: MIC-2, strain 505 (India), 50% fungal growth | [2]; Cryptococcus neoformans, read-out: MIC-2, strain 507 (India), 50% fungal growth | [2]; Cryptococcus neoformans, read-out: MIC-2, strain 512 (India), 50% fungal growth | [2]; Cryptococcus neoformans, read-out: MIC-2, strain 516 (India), 50% fungal growth | [2]; Cryptococcus neoformans, read-out: MIC-2, strain 518 (VNI India), 50% fungal growth | [2]; Cryptococcus neoformans, read-out: MIC-2, strain 522 (India), 50% fungal growth | [2]; Cryptococcus neoformans, read-out: MIC-2, strain H99O (lab strain), 50% fungal growth | [2]; Cryptococcus neoformans, strain 505 (India), no visible growth | [2]; Cryptococcus neoformans, strain 1194 (Italy), no visible growth | [2]; Cryptococcus neoformans, strain H99 XL (lab strain), no visible growth | [2]; Cryptococcus neoformans, strain H99 stud (lab strain), no visible growth
3.13 mg/L: [1]; strain WM 2242 (USA) | [2]; Cryptococcus neoformans, read-out: MIC-2, strain 1188 (Japan lung), 50% fungal growth | [2]; Cryptococcus neoformans, read-out: MIC-2, strain 1197 (Botswana CSF/AIDS), 50% fungal growth | [2]; Cryptococcus neoformans, read-out: MIC-2, strain 1199 (Uganda CSF/HIV+ VNII), 50% fungal growth | [2]; Cryptococcus neoformans, read-out: MIC-2, strain H99 XL (lab strain), 50% fungal growth | [2]; Cryptococcus neoformans, read-out: MIC-2, strain H99 stud (lab strain), 50% fungal growth | [2]; Cryptococcus neoformans, strain 510 (VNII India), no visible growth
25 mg/L: [1]; strain WM 2207 (USA, environmental) | [2]; Cryptococcus neoformans, strain 486 (USA), no visible growth | [2]; Cryptococcus neoformans, strain 488 (AIDS+, pre-HAART USA), no visible growth | [2]; Cryptococcus neoformans, strain 525 (India), no visible growth | [2]; Cryptococcus neoformans, strain 1196 (Botswana CSF/AIDS), no visible growth | [2]; strain 1189 (USA BAL/HIV), no visible growth
1.56 mg/L: [2]; Cryptococcus neoformans, read-out: MIC-2, strain 510 (VNII India), 50% fungal growth | [2]; Cryptococcus neoformans, read-out: MIC-2, strain 1194 (Italy), 50% fungal growth
12.5 mg/L: [1]; strain WM 05.467 (Brazil, environmental) | [1]; strain WM 09.112 (USA) | [1]; strain WM 1706 (Argentina) | [2]; Cryptococcus neoformans, read-out: MIC-2, strain 486 (USA), 50% fungal growth | [2]; Cryptococcus neoformans, read-out: MIC-2, strain 488 (AIDS+, pre-HAART USA), 50% fungal growth | [2]; Cryptococcus neoformans, read-out: MIC-2, strain 525 (India), 50% fungal growth | [2]; Cryptococcus neoformans, read-out: MIC-2, strain 1196 (Botswana CSF/AIDS), 50% fungal growth | [2]; Cryptococcus neoformans, strain 490 (USA), no visible growth | [2]; Cryptococcus neoformans, strain 496 (USA), no visible growth | [2]; Cryptococcus neoformans, strain 500 (USA), no visible growth | [2]; Cryptococcus neoformans, strain 502 (ARR3+ USA), no visible growth | [2]; Cryptococcus neoformans, strain 507 (India), no visible growth | [2]; Cryptococcus neoformans, strain 512 (India), no visible growth | [2]; Cryptococcus neoformans, strain 516 (India), no visible growth | [2]; Cryptococcus neoformans, strain 518 (VNI India), no visible growth | [2]; Cryptococcus neoformans, strain 522 (India), no visible growth | [2]; Cryptococcus neoformans, strain 1188 (Japan lung), no visible growth | [2]; Cryptococcus neoformans, strain 1197 (Botswana CSF/AIDS), no visible growth | [2]; Cryptococcus neoformans, strain 1199 (Uganda CSF/HIV+ VNII), no visible growth | [2]; Cryptococcus neoformans, strain H99O (lab strain), no visible growth | [2]; read-out: MIC-2, strain 1189 (USA BAL/HIV), 50% fungal growth
6.5 mg/L: [2]; Cryptococcus neoformans, read-out: MIC-2, strain 500 (USA), 50% fungal growth | [2]; Cryptococcus neoformans, read-out: MIC-2, strain 502 (ARR3+ USA), 50% fungal growth
